What was measured:
Type in all cases: cell-based
Settings in all cases: after 10, 20, 40 and 60 minutes at all dilutions 1:100, 1:200, 1:400, 1:800
Candida albicans = test: Antimicrobial screening by agar dilution, Candida albicans
Experimental: (§1) The antimicrobial properties of the 1-[4,5-bis(4-bromophenyl)-1-hexyl-1H-imidazol-2-yl]-2-naphthol was studied by the method of agar dilution. Test solutions of each compound was prepared in concentration of 1% using dimethylformamide as a solvent then they were diluted in physiological solution to obtain the final experimental dilutions 1:100, 1:200, 1:400, 1:800. The effect of these substances was compared with furacillin in a controlled study. The testing microbes used were gram positive bacteria Staphylococcus aureus, gram negative bacteria Pseudomonas aeruginosa and Escherichia coli and Candida albicans fungi were taken. The experiments used for this survey were meat-pentonlu agar (EPA) for cultivation of bacteria and Saburo environment for fungi. Each experiment used 1 ml of test solution on each plate 500 min. Add 2 drops of emulsified with microbes feel. All experimental samples were taken from the agar after 10, 20, 40, 60 minutes in the environment on the basis of Patrk planted. Bacteria were cultivated at a temperature of 37° C. for 1 day and the mushroom was kept in a thermostat for […] at a temperature of 28° C. Then results were checked.

Escherichia coli = test: Antimicrobial screening by agar dilution, E. Coli
Experimental: as §1

Pseudomonas aeruginosa = test: Antimicrobial screening by agar dilution, Ps. Aeroqonaza
Experimental: as §1

Staphylococcus aureus = test: Antimicrobial screening by agar dilution, St. Aereus
Experimental: as §1

Measured: inhibition activity

CCCCCCn1c(-c2c(O)ccc3ccccc23)nc(-c2ccc(Br)cc2)c1-c1ccc(Br)cc1 [1-[4,5-bis(4-bromophenyl)-1-hexyl-1H-imidazol-2-yl]-2-naphthol]
highest inhibition activity: all assays above

From patent publication US11958811B1, “1-[4,5-bis(4-bromophenyl)-1-hexyl-1H-imidazol-2-yl]-2-naphthol as an antimicrobial compound” (KING FAISAL UNIVERSITY, priority 2023, dated 2024)
